Test results taken from patent US20150148377A1, “Quinoline Derivatives” (NOVARTIS AG, priority 2011, published 2015).

Assays:
PI3K alpha = molecular target: T1, PI3K alpha (Homo sapiens, UniProt P42336); assay: Enzymatic PI3K alpha isoform inhibition (lipid kinase activity, Kinase-Glo); format: biochemical; details: enzymatic assay
T1 construct: His tag (C); made in house; host or cells: baculovirus; Tn5 (Trichoplusia ni) or TiniPro insect cells
Description: The kinase reaction is performed in a final volume of 50 μl per well of a half area COSTAR, 96 well plate. The final concentrations of ATP and phosphatidyl inositol in the assay are 5 μM and 6 μg/mL, respectively. The reaction is started by the addition of PI3 kinase, e.g. PI3 kinase δ.
(§1) In a more preferred assay, the kinase reaction is performed in a final volume of 10 μl per well of a low volume non-binding CORNING, 384 well black plate (Cat. No. #3676). The final concentrations of ATP and phosphatidyl inositol (PI) in the assay are 1 μM and 10 μg/mL, respectively. The reaction is started by the addition of ATP.
(§2) The components of the assay are added per well as follows:
(§3) 50 nl test compounds in 90% DMSO per well, in columns 1-20, 8 concentrations (1/3 and 1/3.33 serial dilution step) in single. • Low control: 50 nl of 90% DMSO in half the wells of columns 23-24 (0.45% in final). • High control: 50 nl of reference compound (e.g. compound of Example 7 in WO 2006/122806) in the other half of columns 23-24 (2.5 μM in final). • Standard: 50 nl of reference compound as just mentioned diluted as the test compounds in columns 21-22. • 20 mL ‘buffer’ are prepared per assay: • 200 μl of 1M TRIS HCl pH7.5 (10 mM in final) • 60 μl of 1M MgCl2 (3 mM in final) • 500 μl of 2M NaCl (50 mM in final) • 100 μl of 10% CHAPS (0.05% in final) • 200 μl of 100 mM DTT (1 mM in final) • 18.94 mL of nanopure water • 10 mL ‘PI’ are prepared per assay: • 200 μl of 1 mg/mL 1-alpha-Phosphatidylinositol (Liver Bovine, Avanti Polar Lipids Cat. No. 840042C MW=909.12) prepared in 3% OctylGlucoside (10 μg/mL in final) • 9.8 mL of ‘buffer’ • 10 mL ‘ATP’ are prepared per assay: • 6.7 μl of 3 mM stock of ATP giving a final concentration of 1 μM per well • 10 mL of ‘buffer’ • 2.5 mL of each PI3K construct are prepared per assay in ‘PI’ with the following final concentration: • 10 nM PI3K alfa EMV B1075 • 25 nM beta EMV BV949 • 10 nM delta EMV BV1060 • 150 nM gamma EMV BV950 • 5 μl of ‘PI/PI3K’ are added per well. • 5 μl ‘ATP’ are added per well to start the reaction. • The plates are then incubated at room temperature for 60 minutes (alfa, beta, delta) or 120 minutes (gamma). • The reaction is terminated by the addition of 10 μl Kinase-Glo (Promega Cat. No. #6714). • The assay plates are read after 10 minutes in Synergy 2 reader (BioTek, Vermont USA) with an integration time of 100 milliseconds and sensitivity set to 191. • Output: The High control is around 60'000 counts and the Low control is 30'000 or lower • This luminescence assay gives a useful Z′ ratio between 0.4 and 0.7
(§4) IC50 is determined by a four parameter curve fitting routine that comes along with “excel fit”. A four parameter logistic equation is used to calculate IC50 values (IDBS XLfit) of the percentage inhibition of each compound at 8 concentrations (usually 10, 3.0, 1.0, 0.3, 0.1, 0.030, 0.010 and 0.003 μM). Alternatively, IC50 values are calculated using idbsXLfit model 204, which is a 4 parameter logistic model.
(§5) Yet alternatively, for an ATP depletion assay, compounds of the formula I to be tested are dissolved in DMSO and directly distributed into a white 384-well plate at 0.5 μl per well. To start the reaction, 10 μl of 10 nM PI3 kinase and 5 μg/mL 1-alpha-phosphatidylinositol (PI) are added into each well followed by 10 μl of 2 μM ATP. The reaction is performed until approx 50% of the ATP is depleted, and then stopped by the addition of 20 μl of Kinase-Glo solution (Promega Corp., Madison, Wis., USA). The stopped reaction is incubated for 5 minutes and the remaining ATP is then detected via luminescence. IC50 values are then determined.

PI3K delta = molecular target: T2, PI3K delta (Homo sapiens, UniProt O00329); assay: Enzymatic PI3K delta isoform inhibition (lipid kinase activity, Kinase-Glo); format: biochemical; details: enzymatic assay
T2 construct: for the full-length p110-d subunit are generated and fused by overlapping PCR; His tag (C); made in house; host or cells: baculovirus; Tn5 (Trichoplusia ni) or TiniPro insect cells
Description: as §1, §2, §3, §4, §5

T1 sequence (P42336 with tags, fused parts or gaps limits assumed): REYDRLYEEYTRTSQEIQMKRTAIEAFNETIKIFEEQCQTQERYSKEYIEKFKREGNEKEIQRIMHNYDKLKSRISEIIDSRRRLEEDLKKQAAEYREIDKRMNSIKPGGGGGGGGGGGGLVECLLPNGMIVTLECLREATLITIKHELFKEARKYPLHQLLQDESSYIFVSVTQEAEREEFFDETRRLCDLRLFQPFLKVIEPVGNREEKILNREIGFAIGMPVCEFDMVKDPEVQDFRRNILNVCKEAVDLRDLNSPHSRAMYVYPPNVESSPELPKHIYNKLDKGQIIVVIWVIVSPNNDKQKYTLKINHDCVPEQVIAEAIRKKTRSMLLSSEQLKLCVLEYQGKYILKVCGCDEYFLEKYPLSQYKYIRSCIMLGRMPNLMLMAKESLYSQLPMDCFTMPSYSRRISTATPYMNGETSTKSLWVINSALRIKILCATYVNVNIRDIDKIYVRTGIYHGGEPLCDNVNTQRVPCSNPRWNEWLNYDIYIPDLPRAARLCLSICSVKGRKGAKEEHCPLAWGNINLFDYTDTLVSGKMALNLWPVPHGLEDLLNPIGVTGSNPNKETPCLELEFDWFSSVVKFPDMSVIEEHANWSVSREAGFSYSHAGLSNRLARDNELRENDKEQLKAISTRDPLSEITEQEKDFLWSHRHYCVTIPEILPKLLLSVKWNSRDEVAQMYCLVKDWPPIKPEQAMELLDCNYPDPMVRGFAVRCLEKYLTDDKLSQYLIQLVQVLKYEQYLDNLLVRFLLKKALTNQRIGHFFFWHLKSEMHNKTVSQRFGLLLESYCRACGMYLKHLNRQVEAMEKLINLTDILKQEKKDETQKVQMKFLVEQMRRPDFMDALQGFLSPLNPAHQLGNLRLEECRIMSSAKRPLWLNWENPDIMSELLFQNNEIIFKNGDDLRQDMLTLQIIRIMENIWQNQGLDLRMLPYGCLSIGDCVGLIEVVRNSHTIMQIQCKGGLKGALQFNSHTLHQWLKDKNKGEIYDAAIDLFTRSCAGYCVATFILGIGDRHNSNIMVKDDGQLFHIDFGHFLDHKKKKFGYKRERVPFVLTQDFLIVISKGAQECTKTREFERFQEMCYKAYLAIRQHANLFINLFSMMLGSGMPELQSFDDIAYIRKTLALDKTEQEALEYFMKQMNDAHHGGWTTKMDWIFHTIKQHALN
T2 sequence (O00329 with tags, fused parts or gaps limits assumed): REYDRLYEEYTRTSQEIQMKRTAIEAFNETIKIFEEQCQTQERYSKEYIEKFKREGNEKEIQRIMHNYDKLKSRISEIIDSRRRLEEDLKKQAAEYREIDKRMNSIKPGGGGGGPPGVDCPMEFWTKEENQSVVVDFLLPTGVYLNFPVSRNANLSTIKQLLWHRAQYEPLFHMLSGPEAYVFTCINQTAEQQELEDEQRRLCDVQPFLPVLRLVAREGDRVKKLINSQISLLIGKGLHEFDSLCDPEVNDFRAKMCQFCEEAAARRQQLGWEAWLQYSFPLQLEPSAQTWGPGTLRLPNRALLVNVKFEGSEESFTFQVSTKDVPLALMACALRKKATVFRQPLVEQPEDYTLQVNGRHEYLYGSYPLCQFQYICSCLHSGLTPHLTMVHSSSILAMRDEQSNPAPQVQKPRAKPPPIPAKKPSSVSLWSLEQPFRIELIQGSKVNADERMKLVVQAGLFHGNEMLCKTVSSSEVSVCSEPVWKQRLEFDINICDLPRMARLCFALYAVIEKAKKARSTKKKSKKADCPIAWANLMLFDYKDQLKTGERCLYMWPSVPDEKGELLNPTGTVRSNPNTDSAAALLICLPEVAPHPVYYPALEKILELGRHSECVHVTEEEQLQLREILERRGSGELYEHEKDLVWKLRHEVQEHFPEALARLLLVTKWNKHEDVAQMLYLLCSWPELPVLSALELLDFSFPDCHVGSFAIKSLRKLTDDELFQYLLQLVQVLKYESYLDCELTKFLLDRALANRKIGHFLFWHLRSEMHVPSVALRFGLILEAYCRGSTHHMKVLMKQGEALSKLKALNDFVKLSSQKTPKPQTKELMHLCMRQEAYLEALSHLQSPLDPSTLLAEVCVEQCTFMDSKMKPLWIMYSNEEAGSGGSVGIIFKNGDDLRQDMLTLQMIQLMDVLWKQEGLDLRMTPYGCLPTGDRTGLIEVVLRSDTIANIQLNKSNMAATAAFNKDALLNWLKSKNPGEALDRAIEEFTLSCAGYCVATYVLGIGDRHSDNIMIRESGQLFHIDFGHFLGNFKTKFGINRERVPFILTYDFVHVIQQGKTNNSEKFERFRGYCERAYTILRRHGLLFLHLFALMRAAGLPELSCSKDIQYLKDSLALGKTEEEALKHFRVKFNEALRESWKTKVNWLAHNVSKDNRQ

**Q.** What does the source list for `COc1ncc(-c2ccnc3ccc(O[C@H]4CCN(C(=O)C5CCS(=O)(=O)CC5)C4)cc23)cc1F` [Example A4, (1,1-Dioxo-hexahydro-1lambda*6*-thiopyran-4-yl)-{(S)-3-[4-(5-fluoro-6-methoxy-pyridin-3-yl)-quinolin-6-yloxy]-pyrrolidin-1-yl}-methanone]?
**A.** IC50 (PI3K alpha): 128 nM; IC50 (PI3K delta): 3 nM
